According to US7109175B1, “Specific steady-state R-type CA2+ channel blockers and use thereof” (Universite de Sherbrooke, priority 2000, dated 2006):
“Also recorded” adds a separate entry of the source.

Key:
[1] = system: R-type Ca^2+ channel; experiment: Ca2+ channel blockers tested on the R-type channel (data not shown); format: cell-based
[2] = system: writhing response in mice; experiment: Writhing response in mice (acetic acid, acetylcholine, kaolin); format: in vivo; details: i.p., mice; for ID50 ACETYLCHOLINE: acetylcholine-induced writhes; for ID50 KAOLIN: kaolin-induced writhes
Text: The antinociceptive actions of compound MV 8612 and MV 8608 were investigated in different models of nociception in mice as reported previously (Vaz et al., 1996, J. Pharmacol. Exp. Ther. 278:304–312).

[3] = system: anaesthetized rat; experiment: Anaesthetized rat, blood pressure and PAF hypotension; format: in vivo; details: rat, results not shown
Text: On the other hand, in vivo administered PAF, induced a marked hypotension in the anaesthetized rat and guinea pig.

[4] = system: tail-flick; experiment: Tail-flick in mice; format: in vivo; details: i.p.
[5] = system: plasma ET-1, attacks of Raynaud's phenomenon; details: patients, La Civita et al. 1996; cited from earlier work
[6] = system: L-type Ca^2+ channel; experiment: Isradipine on L-type channel (data not shown); format: cell-based; details: read-out: ED50, block of L-type Ca2+ channel
[7] = system: circulating ET-1, blood flow, hypertension
[8] = system: vasoconstriction, hypotension and airways hypereactivity induced by PAF, ET-1 and organ transplantation; experiment: In vivo tests in rats, rabbits and guinea pigs (summary); details: rabbits, guinea pigs
[9] = system: MG63 and FAOS-2; experiment: Spontaneous proliferation of human osteoblast cancer lines; format: cell-based; details: 10^−8M

Question: Which “block of R-type Ca2+ channel” value [1] does the source give for COc1ccc([C@@H]2Sc3cc(Cl)ccc3N(CCN(C)C)C(=O)[C@@H]2OC(C)=O)cc1 [Clentiazem] here?
Answer: Its value is “none were found to block the R-type Ca^2+”.

Question: With COc1cccc(CCN(C)CCCC(C#N)(c2ccc(OC)c(OC)c2)C(C)C)c1 (stereo not shown) [D888] as the compound, how does the “block of R-type Ca2+ channel” value [1] read?
Answer: The value was “none were found to block the R-type Ca^2+”.

Question: What does the source list for COc1ccc2c(c1)c(CC(=O)O)c(C)n2C(=O)c1ccc(Cl)cc1 [INDOMETHACIN, indomethacin, reference compound]?
Answer: ID50 ACETIC ACID ([2]; acetic acid-induced writhes): 1.2 (0.9–1.4) μmol/kg; ID50 ACETYLCHOLINE [2]: 0.8 (0.5–1.0) μmol/kg; ID50 KAOLIN [2]: 1.6 (1.4–1.8) μmol/kg

Question: For COc1ccc([C@@H]2Sc3ccccc3N(CCN(C)C)C(=O)[C@@H]2OC(C)=O)cc1 [Diltiazem], which “block of R-type Ca2+ channel” value [1] is on record?
Answer: Its value is “none were found to block the R-type Ca^2+”.

Question: With COC(=O)C1=C(C)NC(C)=C(C(=O)OC)C1c1ccccc1[N+](=O)[O-] [nifedipine] as the compound, how does the intrinsic hypotensive effect [3] read?
Answer: Its intrinsic hypotensive effect is “marked intrinsic hypotensive properties”.

Question: With COc1ccc(CCN(C)CCCC(C#N)(c2ccc(OC)c(OC)c2)C(C)C)cc1OC (stereo not shown) [Verapamil] as the compound, how does the “block of R-type Ca2+ channel” value [1] read?
Answer: Its value is “none were found to block the R-type Ca^2+”.

Question: With COc1ccc(CCN(C)CCCC(C#N)(c2cc(OC)c(OC)c(OC)c2)C(C)C)cc1OC (stereo not shown) [D600] as the compound, how does the “block of R-type Ca2+ channel” value [1] read?
Answer: Its value is “none were found to block the R-type Ca^2+”.

Question: With CN1CC[C@]23c4c5ccc(O)c4O[C@H]2[C@@H](O)C=C[C@H]3[C@H]1C5 [MORPHINE, morphine, reference compound] as the compound, how does the “ID50 ACETYLCHOLINE” value [2] read?
Answer: Its value is 1.4 (1.0–1.8) μmol/kg.

Question: And the “ID50 KAOLIN” value [2]?
Answer: Its value is 1.4 (1.2–1.7) μmol/kg.

Question: What about the “ID50 TAIL-FLICK” value [4] of the same compound?
Answer: The value was 6.0(5.7–6.4) μmol/kg.

Question: Which intrinsic hypotensive effect [3] does the source give for COC(=O)C1=C(C)NC(C)=C(C(=O)OC(C)C)C1c1cccc2nonc12 (stereo not shown) [isradipine] here?
Answer: Its intrinsic hypotensive effect is “marked intrinsic hypotensive properties”.

Question: What about the “elevated plasma ET-1 level and frequency, severity of acute attacks of Raynaud's phenomenon” value [5] of the same compound?
Answer: Its value is “significantly reduced”.

Question: And the EC50 [6]?
Answer: Its EC50 is ~1000 nM.

Question: And the “hypertension and ET-1 plasma elevation associated with cyclosporin A (Sandimmune) treatment” value ([7]; allograft transplant, listed as Lomir/Dynacirc)?
Answer: Its value is “blocked hypertension and ET-1 plasma elevation; also recorded: blocks the elevated circulating endothelin level”.

Question: And the “increase of circulating ET-1 and decrease of blood flow” value ([7]; organ transplants, rabbit, cyclosporin-A treated)?
Answer: The value was “restored ET-1 and blood flow levels”.

Question: What about the “side effects in vivo” value [8] of the same compound?
Answer: Its value is “exhibited significant side effects”.

Question: And the spontaneous cell proliferation [9]?
Answer: The spontaneous cell proliferation was “reduced spontaneous cell proliferation”.
